Results on 2 compounds are retold here after US11268068B2, “In vitro model of metastatic cancer” (THE JOHNS HOPKINS UNIVERSITY, priority 2014, dated 2022).

Assay [1] has as its system parental and rs-monolayer population of Huh7 cells. Briefly: Chemosensitivity assay (cell viability after 3-BrPA). Format: cell-based, human. The conditions noted are these: Huh7 (luc-Huh7) cells, rs-monolayer vs parental monolayer, FIG. 7B. As to the method: Assessment of the chemosensitivity of parental cell population and rs-monolayer population was performed using the antiglycolytic agent, 3-bromopyruvate (3-BrPA). In brief, cells were plated in 96-well plates the day before treatment. Analysis of cell viability following the addition of 3-BrPA was performed as described other cell lines^22.

The test system of assay [2] is human cancer cells in 3D-culture. The conditions noted are these: Gomes et al., Oncogene 2015; cited from earlier work.

In the case of `O=C(O)C(=O)CBr` [3-BrPA, 3-bromopyruvate], the entries for the “IC50 of rs-monolayer cells compared to the parental population” value in assay [1] and in assay [1] (listed as 3-bromopyruvate) were “An increase in IC50 of rs-monolayer cells compared to the parental population” and “rs-monolayer cells require a higher concentration of drug”, respectively. `COc1cccc2c1C(=O)c1c(O)c3c(c(O)c1C2=O)C[C@@](O)(C(=O)CO)C[C@@H]3O[C@H]1C[C@H](N)[C@H](O)[C@H](C)O1` [doxorubicin]: the “Sensitivity of 3D-culture compared with corresponding monolayer culture” value in assay [2] is reported as “more sensitive”.
